Structures can show the parent of a compound that is named as a salt.
What follows are compounds tested on Human fibrosarcoma cells (HT-1080 cells) (assay: In vitro inhibitory action against ferroptosis (Erastin-induced cell death, Cell Counting Kit-8)). Conditions: evaluation concentration 10 μmol/L, Erastin 3 μmol/L, 24 hours.
Assay type: cell-based
Protocol: The inhibitory action against ferroptosis of the tetrahydroquinoline derivative (I) or a pharmaceutically acceptable salt thereof was evaluated with Human fibrosarcoma cells (HT-1080 cells), by using, as an index, the inhibitory action against the cell death induced by treatment with a ferroptosis inducer, Erastin.
HT-1080 cells (ATCC) were cultured in a mixture (hereinafter referred to as vehicle) composed of DMEM/F12 (Thermo Fisher Scientific, Inc.), a final concentration of 10% fetal bovine serum (Thermo Fisher Scientific, Inc.), and a final concentration of 1% penicillin-streptomycin solution (Nacalai Tesque, Inc.). Cells were seeded into 96-well plates (Corning Inc.) at 5×10^4 cells/well and cultured overnight.
A test compound was dissolved in DMSO, and the resulting solution was diluted in the vehicle to a final concentration of 1% DMSO and then used. […] Thirty minutes after the addition of the test compound, Erastin (Cayman Chemical Co.) diluted in the vehicle at a final concentration of 3 μmol/L was added to wells. The wells added with the test compound and Erastin were grouped as “test compound,” and the wells added with no test compound and no Erastin were grouped as “background,” and the wells added with no test compound but with Erastin were grouped as “control.” Twenty-four hours after the addition of Erastin, 5 μL of Cell Counting Kit-8 (Dojindo Laboratories) was added to each well and incubated for 4 hours, and the absorbance at 450 nm was then measured for each well (N=2). […] Ferroptosis inhibition rate (%)=[1−{(Average absorbance value at 450 nm measured when a test compound is added)−(Average absorbance value at 450 nm measured in the background)}/{(Average absorbance value at 450 nm measured in the control)−(Average absorbance value at 450 nm measured in the background)}]×100 Equation 1

**Q.** With Cc1ccc2c(c1)CCC(c1ccc(C(N)=O)cc1)N2 (stereo not drawn) [Example 110, 4-(6-methyl-1,2,3,4-tetra-hydroquinolin-2-yl)benzamide] as the compound, how does the “Ferroptosis inhibition rate (%)” value read?
**A.** 103.0%

**Q.** With Cc1ccc2c(c1)CCC(c1ccc(C(N)=O)cc1)N2 (stereo not drawn) [Example 111, 4-(6-methyl-1,2,3,4-tetrahydroquinolin-2-yl)benzamide] as the compound, how does the “Ferroptosis inhibition rate (%)” value read?
**A.** 98.91%

Same assay, conditions: evaluation concentration 25 μmol/L, Erastin 3 μmol/L, 24 hours

**Q.** How did the “Ferroptosis inhibition rate (%)” value turn out when Nc1ccc2c(c1)CCC(c1ccccc1)N2 (stereo not drawn) [Example 64, 2-phenyl-1,2,3,4-tetrahydroquinoline-6-amine dihydrochloride] was run?
**A.** 82.89%

**Q.** With CC(C)(C)CC(=O)Nc1ccc2c(c1)CCC(c1ccccc1)N2 (stereo not drawn) [Example 78, 3,3-dimethyl-N-(2-phenyl-1,2,3,4-tetrahydroquinolin-6-yl)butanamide] as the compound, how does the “Ferroptosis inhibition rate (%)” value read?
**A.** 88.56%

Same assay, conditions: evaluation concentration 30 μmol/L, Erastin 3 μmol/L, 24 hours

**Q.** How did the “Ferroptosis inhibition rate (%)” value turn out when c1ccc2c(c1)CCC(c1cnco1)N2 (stereo not drawn) [Example 65, 5-(1,2,3,4-tetrahydroquinolin-2-yl)oxazole] was run?
**A.** 89.25%

**Q.** Which “Ferroptosis inhibition rate (%)” value does the source give for Brc1ccc2c(c1)CCC(c1ccccc1)N2 (stereo not drawn) [Example 70, 6-bromo-2-phenyl-1,2,3,4-tetrahydroquinoline] here?
**A.** 97.10%

**Q.** Which “Ferroptosis inhibition rate (%)” value does the source give for OC1(c2ccc3c(c2)CCC(c2ccccc2)N3)COC1 (stereo not drawn) [Example 71, 3-(2-phenyl-1,2,3,4-tetrahydroquinolin-6-yl)oxetan-3-ol] here?
**A.** 108.9%

**Q.** Which “Ferroptosis inhibition rate (%)” value does the source give for c1ccc(C2CCc3cc(N4CCCCC4)ccc3N2)cc1 (stereo not drawn) [Example 72, 2-phenyl-6-(piperidin-1-yl)-1,2,3,4-tetrahydroquinoline] here?
**A.** 110.6%

**Q.** With CC(C)(C)C(=O)Nc1ccc2c(c1)CCC(c1ccccc1)N2 (stereo not drawn) [Example 74, N-(2-phenyl-1,2,3,4-tetrahydroquinolin-6-yl)pivalamide] as the compound, how does the “Ferroptosis inhibition rate (%)” value read?
**A.** 85.08%

**Q.** CS(=O)(=O)Nc1ccc2c(c1)CCC(c1ccccc1)N2 (stereo not drawn) [Example 75, N-(2-phenyl-1,2,3,4-tetrahydroquinolin-6-yl)methanesulfonamide] was tested. Which “Ferroptosis inhibition rate (%)” value did it give?
**A.** 110.6%

**Q.** With NC(=O)Nc1ccc2c(c1)CCC(c1ccccc1)N2 (stereo not drawn) [Example 77, 1-(2-phenyl-1,2,3,4-tetrahydroquinolin-6-yl)urea] as the compound, how does the “Ferroptosis inhibition rate (%)” value read?
**A.** 101.6%

**Q.** How did the “Ferroptosis inhibition rate (%)” value turn out when Clc1cccc2c1NC(c1ccccc1)CC2 (stereo not drawn) [Example 79, 8-chloro-2-phenyl-1,2,3,4-tetrahydroquinoline] was run?
**A.** 104.4%

**Q.** Which “Ferroptosis inhibition rate (%)” value does the source give for Fc1cccc2c1NC(c1ccccc1)CC2 (stereo not drawn) [Example 80, 8-fluoro-2-phenyl-1,2,3,4-tetrahydroquinoline] here?
**A.** 103.9%

**Q.** How did the “Ferroptosis inhibition rate (%)” value turn out when CC1(c2ccccc2)CCc2ccccc2N1 (stereo not drawn) [Example 91, 2-methyl-2-phenyl-1,2,3,4-tetrahydroquinoline] was run?
**A.** 105.2%

**Q.** With OCC1(c2ccccc2)CCc2ccccc2N1 (stereo not drawn) [Example 92, (2-phenyl-1,2,3,4-tetrahydroquinolin-2-yl)methanol] as the compound, how does the “Ferroptosis inhibition rate (%)” value read?
**A.** 66.40%

**Q.** Which “Ferroptosis inhibition rate (%)” value does the source give for COC(=O)C1(c2ccccc2)CCc2ccccc2N1 (stereo not drawn) [Example 93, methyl 2-phenyl-1,2,3,4-tetrahydroquinoline-2-carboxylate] here?
**A.** 89.78%

**Q.** COC(=O)CC1(c2ccccc2)CCc2ccccc2N1 (stereo not drawn) [Example 94, 2-(2-phenyl-1,2,3,4-tetrahydroquinolin-2-yl)methyl acetate] was tested. Which “Ferroptosis inhibition rate (%)” value did it give?
**A.** 93.68%

**Q.** Which “Ferroptosis inhibition rate (%)” value does the source give for O=C1Cc2cc(C3CCc4cc(Cl)ccc4N3)ccc2N1 (stereo not drawn) [Example 95, 5-(6-chloro-2,3,4,4-tetrahydroquinolin-2-yl)indolin-2-one] here?
**A.** 68.84%

**Q.** For Clc1ccc2c(c1)CCC(c1cn[nH]c1)N2 (stereo not drawn) [Example 96, 6-chloro-2-(1H-pyrazol-4-yl)-1,2,3,4-tetrahydroquinoline], which “Ferroptosis inhibition rate (%)” value is on record?
**A.** 98.01%

**Q.** With Cc1ccc2c(c1)CCC(c1cn[nH]c1)N2 (stereo not drawn) [Example 97, 6-methyl-2-(1H-pyrazol-4-yl)-1,2,3,4-tetrahydroquinoline] as the compound, how does the “Ferroptosis inhibition rate (%)” value read?
**A.** 83.94%

**Q.** With Fc1ccc2c(c1)CCC(c1cn[nH]c1)N2 (stereo not drawn) [Example 98, 6-fluoro-2-(1H-pyrazol-4-yl)-1,2,3,4-tetrahydroquinoline] as the compound, how does the “Ferroptosis inhibition rate (%)” value read?
**A.** 98.95%

**Q.** Which “Ferroptosis inhibition rate (%)” value does the source give for Cc1ccc2c(c1)CCC(c1ccc(S(N)(=O)=O)cc1)N2 (stereo not drawn) [Example 100, 4-(6-methyl-1,2,3,4-tetrahydroquinolin-2-yl)benzenesulfonamide] here?
**A.** 103.5%

**Q.** Which “Ferroptosis inhibition rate (%)” value does the source give for Cc1ccc2c(c1)CCC(c1ccc3c(c1)CCC(=O)N3)N2 (stereo not drawn) [Example 101, 6-methyl-1,2,3,3′,4,4′-hexahydro-[2,6′-biquinolin]-2′(1′H)-one] here?
**A.** 109.6%

**Q.** For Cc1ccc2c(c1)CCC(c1ccoc1)N2 (stereo not drawn) [Example 102, 2-(furan-3-yl)-6-methyl-1,2,3,4-tetrahydroquinoline], which “Ferroptosis inhibition rate (%)” value is on record?
**A.** 77.96%

**Q.** With Cc1ccc2c(c1)CCC(c1cscn1)N2 (stereo not drawn) [Example 103, 4-(6-methyl-1,2,3,4-tetrahydroquinolin-2-yl)thiazole] as the compound, how does the “Ferroptosis inhibition rate (%)” value read?
**A.** 76.76%

**Q.** With Cc1ccc2c(c1)CCC(c1cnoc1)N2 (stereo not drawn) [Example 104, 4-(6-methyl-1,2,3,4-tetrahydroquinolin-2-yl)isoxazole] as the compound, how does the “Ferroptosis inhibition rate (%)” value read?
**A.** 64.65%

**Q.** Cc1ccc2c(c1)CCC(c1ccc(S(N)(=O)=O)c(F)c1)N2 (stereo not drawn) [Example 113, 2-fluoro-4-(6-methyl-1,2,3,4-tetrahydroquinolin-2-yl)benzenesulfonamide] was tested. Which “Ferroptosis inhibition rate (%)” value did it give?
**A.** 97.54%

**Q.** For Cc1ccc2c(c1)CCC(c1ccc(NS(N)(=O)=O)cc1)N2 (stereo not drawn) [Example 114, N-(4-(6-methyl-1,2,3,4-tetrahydroquinolin-2-yl)phenyl)sulfamoylamine], which “Ferroptosis inhibition rate (%)” value is on record?
**A.** 87.04%

**Q.** For O=C1NCc2cc(C3CCc4ccccc4N3)ccc21 (stereo not drawn) [Example 123, 5-(1,2,3,4-tetrahydroquinolin-2-yl)isoindolin-1-one], which “Ferroptosis inhibition rate (%)” value is on record?
**A.** 113.4%

**Q.** O=C1NCc2cc(C3CCc4ccccc4N3)ccc21 (stereo not drawn) [Example 124, 5-(1,2,3,4-tetrahydroquinolin-2-yl)isoindolin-1-one] was tested. Which “Ferroptosis inhibition rate (%)” value did it give?
**A.** 106.3%

**Q.** With O=C1CCc2cc(C3CCc4ccccc4N3)ccc2N1 (stereo not drawn) [Example 125, 1,2,3,3′,4,4′-hexahydro-[2,6′-biquinolin]-2′(1′H)-one] as the compound, how does the “Ferroptosis inhibition rate (%)” value read?
**A.** 102.6%

**Q.** How did the “Ferroptosis inhibition rate (%)” value turn out when O=C1CCc2cc(C3CCc4ccccc4N3)ccc2N1 (stereo not drawn) [Example 126, 1,2,3,3′,4,4′-hexahydro-[2,6′-biquinolin]-2′(1′H)-one] was run?
**A.** 97.29%

**Q.** How did the “Ferroptosis inhibition rate (%)” value turn out when CC(C)(C)NC(=O)Nc1ccc2c(c1)CCC(c1ccccc1)N2 (stereo not drawn) [Example 127, 1-(tert-butyl)-3-(2-phenyl-1,2,3,4-tetrahydroquinolin-6-yl)urea] was run?
**A.** 87.93%

**Q.** With CC(C)(C)NC(=O)Nc1ccc2c(c1)CCC(c1ccccc1)N2 (stereo not drawn) [Example 128, 1-(tert-butyl)-3-(2-phenyl-1,2,3,4-tetrahydroquinolin-6-yl)urea] as the compound, how does the “Ferroptosis inhibition rate (%)” value read?
**A.** 91.83%

**Q.** For CC(C)(C)CC(=O)Nc1ccc2c(c1)CCC(c1ccccc1)N2 (stereo not drawn) [Example 129, 3,3-dimethyl-N-(2-phenyl-1,2,3,4-tetrahydroquinolin-6-yl)butanamide], which “Ferroptosis inhibition rate (%)” value is on record?
**A.** 88.31%

**Q.** With CC(C)(C)CC(=O)Nc1ccc2c(c1)CCC(c1ccccc1)N2 (stereo not drawn) [Example 130, 3,3-dimethyl-N-(2-phenyl-1,2,3,4-tetrahydroquinolin-6-yl)butanamide] as the compound, how does the “Ferroptosis inhibition rate (%)” value read?
**A.** 104.2%

**Q.** How did the “Ferroptosis inhibition rate (%)” value turn out when O=C1CCc2cc(C3CCc4cc(F)ccc4N3)ccc2N1 (stereo not drawn) [Example 133, 6-fluoro-1,2,3,3′,4,4′-hexahydro-[2,6′-biquinolin]-2′(1′H)-one] was run?
**A.** 98.54%

**Q.** For O=C1CCc2cc(C3CCc4ccc(F)cc4N3)ccc2N1 (stereo not drawn) [Example 139, 7-fluoro-1,2,3,3′,4,4′-hexahydro-[2,6′-biquinolin]-2′(1′H)-one], which “Ferroptosis inhibition rate (%)” value is on record?
**A.** 60.63%

**Q.** Which “Ferroptosis inhibition rate (%)” value does the source give for N#Cc1ccc(C2CCc3ccccc3N2)cc1F (stereo not drawn) [Example 141] here?
**A.** 59.10%

**Q.** For NS(=O)(=O)c1ccc(C2CCc3cc(C(F)(F)F)ccc3N2)cc1 (stereo not drawn) [Example 142, 4-(6-(trifluoromethyl)-1,2,3,4-tetrahydroquinolin-2-yl)benzenesulfonamide], which “Ferroptosis inhibition rate (%)” value is on record?
**A.** 64.86%

Same assay, conditions: evaluation concentration 50 μmol/L, Erastin 3 μmol/L, 24 hours

**Q.** With CC(=O)Nc1ccc2c(c1)CCC(c1ccccc1)N2 (stereo not drawn) [Example 73, N-(2-phenyl-1,2,3,4-tetrahydroquinolin-6-yl)acetamide] as the compound, how does the “Ferroptosis inhibition rate (%)” value read?
**A.** 88.18%

**Q.** How did the “Ferroptosis inhibition rate (%)” value turn out when CC(C)(C)NC(=O)Nc1ccc2c(c1)CCC(c1ccccc1)N2 (stereo not drawn) [Example 76, 1-(tert-butyl)-3-(2-phenyl-1,2,3,4-tetrahydroquinolin-6-yl)urea] was run?
**A.** 85.43%

**Q.** For FC(F)(F)c1ccc2c(c1)CCC(c1ccccc1)N2 (stereo not drawn) [Example 84, 2-phenyl-6-(trifluoromethyl)-1,2,3,4-tetrahydroquinoline], which “Ferroptosis inhibition rate (%)” value is on record?
**A.** 107.1%

**Q.** How did the “Ferroptosis inhibition rate (%)” value turn out when Fc1cc(F)c2c(c1)CCC(c1ccccc1)N2 (stereo not drawn) [Example 86, 6,8-difluoro-2-phenyl-1,2,3,4-tetrahydroquinoline] was run?
**A.** 98.80%

**Q.** Which “Ferroptosis inhibition rate (%)” value does the source give for CC(C)(C)NC(=O)Nc1ccc2c(c1)CCC(c1ccc(C(N)=O)cc1)N2 (stereo not drawn) [Example 87, 4-(6-(3-(tert-butyl)ureido)-1,2,3,4-tetrahydroquinolin-2-yl)benzamide] here?
**A.** 95.20%
